Test results: patent publication US20250262212A1, “COMPOSITION FOR SUPPRESSING PROLIFERATION OF CANCER STEM CELLS” (Chemiteras, Inc., priority 2022, published 2025)

Tested on: cancer stem cells (12037NS)
Test: Proliferation suppressive effect on cancer stem cells (survival rate, WST-8 / Cell Counting Kit-8)
Assay type: cell-based
Conditions: for Survival Rate(%) of cancer stem cells: DMSO control = 100; for proliferation suppressive effect on cancer stem cells (in words): 10 μM, 3 days, verbal assessment
Experimental: The proliferation suppressive effect of the triazolohalopyrimidine compounds on cancer stem cells was evaluated as follows.
The proliferation suppressive effect of triazolohalopyrimidine compounds on cancer stem cells was evaluated using commercially available anticancer agents and known compounds known to have antitumor effect.
12037NS was used as cancer stem cells. 12037NS are the cells obtained by isolation and purification according to the method referred in Nature 432, No. 18, 396-401 (2004). 12037NS cells are susceptible to cytotoxicity by DMSO (dimethylsulfoxide) used for dilution of test compounds. Accordingly, DMSO was used as control.
Used cancer stem cells were 12037NS which are cultivated cancer stem cells. 12037NS are the cells obtained by isolation and purification according to the method referred in Nature 432, No. 18, 396-401 (2004).
Cancer stem cells (12037NS) were seededat 3.0×10^3 cells/well in a 96-well plate using DMEM (Dulbeco's Modified Eagle Medium).
Test compounds shown in Table 3 were diluted with DMSO and then further diluted with PBS (phosphate buffered saline) to prepare test solutions. The test solution was added to each well to become a final concentration of 10 μM. For controls, DMSO was added to the wells to become a final concentration of 0.1% (v/v).
After adding the test solution, the plate was incubated at 37° C. in a 5% CO2 environment for 3 days.
After incubation, water-soluble tetrazonium salt WST-8 (“Cell Counting Kit-8” coloring reagent; manufactured by Dojindo Laboratories) was added at 10 μL/well to each well and the plate was placed in a 37° C., 5% CO2 environment, and incubated for 2 hours.
The absorbance at 450 nm wavelength was measured for the culture solution in each well of the plate after incubation. WST-8 is reduced by intracellular dehydrogenase to produce water-soluble formazan. The number of living cells can be measured by measuring the absorbance of this formazan at 450 nm.
The survival rate of cancer stem cells was determined by comparing the measured number of living cells with the number of seeded cells.
In the same manner as in [Test Example 1], the survival rate of cancer stem cells was determined for the test compounds shown in Table 4. Triazolohalopyrimidine compound (I)g means 2-(4-hydroxyphenyl)-5-chloro-8-methyl[1.2.4]triazolo[1,5-c]pyrimidine.

[1] = Test Example 1, test compound 10 μM, 3 days incubation
[2] = Test Example 2, same manner as Test Example 1 (10 μM, 3 days)

SMILES	Survival Rate(%) of cancer stem cells [1] [%]	proliferation suppressive effect on cancer stem cells (in words)	Survival Rate(%) of cancer stem cells [2] [%]
O=c1[nH]cc(F)c(=O)[nH]1 [5-Fluorouracil]	80	–	–
Cc1cnc(Cl)n2nc(-c3ccc(Br)cc3)nc12 [Compound (I)d, 2-(4-bromophenyl)-5-chloro-8-methyl[1.2.4]triazolo[1,5-c]pyrimidine]	–	significantly superior to those of commercially available anticancer agents	–
Cc1cnc(Cl)n2nc(-c3ccc(Cl)c(Cl)c3)nc12 [Compound (I)f, 2-(3,4-dichlorophenyl)-5-chloro-8-methyl[1.2.4]triazolo[1,5-c]pyrimidine]	–	significantly superior to those of commercially available anticancer agents	–
Cc1cnc(Cl)n2nc(-c3ccc(O)cc3)nc12 [Compound (I)g, 2-(4-hydroxyphenyl)-5-chloro-8-methyl[1.2.4]triazolo[1,5-c]pyrimidine]	–	–	45
Cn1nnc2c(C(N)=O)ncn2c1=O [Temozolomide]	65	–	75
